Several values for one entry are separate records, joined by “and”; a condition that tells them apart may be missing. Equal entries are not always repeated.
Experiments:
[1] = target: AMP-activated protein kinase, AMPK; experiment: AMP-dependent Kinase enzyme assay. An in vitro enzyme assay that detects ADP turnover that is directly proportional to AMPK activity. This uses naive AMPK that is activated during the assay with MK-8722; assay type: functional, Homo sapiens
Histidine--tRNA ligase [2] = target: T1, Histidine--tRNA ligase (Leishmania infantum, UniProt A4I591); experiment: Leishmania infantum Histidine tRNA synthetase (LdHisRS); assay type: functional
T1 sequence (A4I591 whole entry): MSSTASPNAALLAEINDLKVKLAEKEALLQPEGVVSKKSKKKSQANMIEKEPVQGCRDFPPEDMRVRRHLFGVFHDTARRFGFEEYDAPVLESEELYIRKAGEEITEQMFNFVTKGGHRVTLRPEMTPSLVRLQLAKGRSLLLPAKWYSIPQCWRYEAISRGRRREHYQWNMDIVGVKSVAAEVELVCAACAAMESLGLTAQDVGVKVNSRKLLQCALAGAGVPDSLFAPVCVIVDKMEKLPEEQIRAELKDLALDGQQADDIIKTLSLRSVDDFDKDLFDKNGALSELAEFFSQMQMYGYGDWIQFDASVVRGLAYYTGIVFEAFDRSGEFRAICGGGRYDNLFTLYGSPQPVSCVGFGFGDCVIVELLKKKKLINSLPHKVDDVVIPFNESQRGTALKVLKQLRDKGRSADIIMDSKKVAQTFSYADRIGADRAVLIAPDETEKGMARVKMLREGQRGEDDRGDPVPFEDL

[3] = target: T2, Coenzyme A biosynthesis bifunctional protein CoaBC (Mycobacterium tuberculosis (strain ATCC 25618 / H37Rv), UniProt P9WNZ1); experiment: Biomol Green assay for MtCoaBC inhibitor, OD650 read; assay type: functional
T2 sequence (P9WNZ1 whole entry): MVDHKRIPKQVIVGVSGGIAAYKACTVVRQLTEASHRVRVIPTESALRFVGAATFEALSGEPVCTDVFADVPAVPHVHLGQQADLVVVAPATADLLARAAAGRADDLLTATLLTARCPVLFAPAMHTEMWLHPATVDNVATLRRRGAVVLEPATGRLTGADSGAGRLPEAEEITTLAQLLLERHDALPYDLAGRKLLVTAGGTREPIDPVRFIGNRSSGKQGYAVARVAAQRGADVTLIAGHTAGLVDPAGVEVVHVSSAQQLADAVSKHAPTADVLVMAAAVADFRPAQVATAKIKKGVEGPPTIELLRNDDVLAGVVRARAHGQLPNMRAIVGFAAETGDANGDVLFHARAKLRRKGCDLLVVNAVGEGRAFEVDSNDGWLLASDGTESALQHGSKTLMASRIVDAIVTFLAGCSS

Trypanosoma brucei = experiment: Trypanosoma brucei 72 hour study; assay type: functional, organism-based; settings: for IC50: Trypanosoma brucei, 72 h
[4] = system: Mycobacterium tuberculosis; experiment: Cornell M. t heat shock assay; assay type: functional, organism-based; settings: for IC50: Mycobacterium tuberculosis
ClpP1P2 = ClpP1P2 (Mycobacterium tuberculosis (strain ATCC 25618 / H37Rv), UniProt P9WPC3+P9WPC5); experiment: in vitro assay to detect presence of AMC directly proportional to the activity of ClpP1P2. GHDDI collaboration.; assay type: functional
Sequence of ClpP1P2 (P9WPC5 whole entry): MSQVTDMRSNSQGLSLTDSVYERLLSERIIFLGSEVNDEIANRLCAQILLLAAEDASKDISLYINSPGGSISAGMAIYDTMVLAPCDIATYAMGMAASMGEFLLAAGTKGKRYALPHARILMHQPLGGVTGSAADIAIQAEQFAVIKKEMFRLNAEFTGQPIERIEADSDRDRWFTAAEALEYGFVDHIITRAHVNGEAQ
Sequence of ClpP1P2 (P9WPC3 whole entry): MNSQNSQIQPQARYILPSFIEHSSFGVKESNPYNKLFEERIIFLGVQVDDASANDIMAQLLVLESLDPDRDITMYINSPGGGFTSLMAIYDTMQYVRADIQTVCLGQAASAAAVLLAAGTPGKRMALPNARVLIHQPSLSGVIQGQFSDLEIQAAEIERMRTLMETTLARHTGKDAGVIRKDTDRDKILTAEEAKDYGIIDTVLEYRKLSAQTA

Plasmodium falciparum = experiment: Calibr Malaria Delayed Death Assay SOP; assay type: functional, organism-based; settings: for IC50: Plasmodium falciparum
Leishmania donovani = experiment: Leishmania intramacrophage assay; assay type: functional, organism-based; settings: for IC50: Leishmania donovani
[5] = microbe, parasite or virus in culture; settings: Mycobacterium tuberculosis, 96 h, read-out: pIC50 (converted)
[6] = microbe, parasite or virus in culture; settings: Mycobacterium tuberculosis, 72 h, read-out: pIC50 (converted)
[7] = In vitro enzyme assay to detect hydrolysis of chlorophenol red-beta-D-[…] directly proportional to the number of Toxoplasma stably expressing beta-galactosidase; assay type: functional, organism-based, Toxoplasma gondii; settings: for IC50: Toxoplasma gondii
Wolbachia pipientis = experiment: Anti-Wolbachia Cell-Based Screen; assay type: functional
Histidine--tRNA ligase [8] = target: T3, Histidine--tRNA ligase (Trypanosoma cruzi (strain CL Brener), UniProt Q4DA54); experiment: Trypanosoma cruzi histidyl tRNA synthetase (Tc-HisRS); assay type: functional
T3 sequence (Q4DA54 whole entry): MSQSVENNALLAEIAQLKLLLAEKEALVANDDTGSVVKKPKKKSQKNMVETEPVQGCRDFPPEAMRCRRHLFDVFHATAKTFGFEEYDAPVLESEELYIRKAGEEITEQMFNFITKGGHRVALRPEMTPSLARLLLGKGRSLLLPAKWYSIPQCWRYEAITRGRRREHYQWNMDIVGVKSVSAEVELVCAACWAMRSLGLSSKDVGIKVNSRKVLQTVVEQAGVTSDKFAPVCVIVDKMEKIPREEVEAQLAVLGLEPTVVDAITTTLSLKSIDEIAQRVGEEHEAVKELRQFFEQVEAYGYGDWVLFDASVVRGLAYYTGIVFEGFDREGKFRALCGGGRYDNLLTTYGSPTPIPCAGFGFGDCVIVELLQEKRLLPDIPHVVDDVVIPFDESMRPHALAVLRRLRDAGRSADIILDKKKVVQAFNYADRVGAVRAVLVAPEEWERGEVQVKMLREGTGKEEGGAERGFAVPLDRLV

SMILES: Cc1ccc2c(n1)N(C)CCN(C(=O)NC1CC1)C2.O=C(O)C(F)(F)F
- pIC50 [1]: < 4

SMILES: Cl.Cl.c1cncc(OC[C@@H]2CCC[C@@]23CNCCO3)c1
- pIC50 [1]: < 4

SMILES: NCC1Cc2cccc(-c3ccc(O)c(F)c3)c2O1 (centres undefined)
- pIC50 [1]: 4.898 and 4.913

SMILES: Cc1ccsc1C(=O)N1CC(C(=O)N2CCOCC2)C2(CCOCC2)C1 (centres undefined)
- pIC50 [1]: < 4

SMILES: CCS(=O)(=O)CC(=O)NC(c1ccc(F)cc1)C1CCCC1 (centres undefined)
- pIC50 [1]: < 4

SMILES: CCn1nc(C)c2ccn(CC(=O)NC3CCCC3)c(=O)c21
- pIC50 [1]: < 4

SMILES: C[C@H]1C[C@@H]2CCN(Cc3ccccn3)C[C@H]2O1
- pIC50 [1]: < 4

SMILES: COc1cc(C(=O)N2CCCC(CNS(C)(=O)=O)C2)cc(OC)c1C (centres undefined)
- pIC50 [1]: < 4

SMILES: CC(C)NC(=O)N1CC[C@@H]2CN(Cc3ccccc3)S(=O)(=O)[C@@H]2CC1
- pIC50 [1]: < 4

SMILES: O=C(NCC1CC1)C1CN(C(=O)c2cccc(Cl)c2)CC12CCOCC2 (centres undefined)
- pIC50 [1]: < 4

SMILES: Cc1cccc(-c2nc(CN3CCc4cnc(C)nc4C3)no2)c1
- pIC50 [1]: < 4

SMILES: COc1cc(-c2cccc3c2OC(CN)C3)ccc1O (centres undefined)
- pIC50 [1]: 4.656 and 4.577

SMILES: c1cc(-c2ccc3c(c2)C2(CCNCC2)CC3)ccn1
- pIC50 [1]: < 4

SMILES: CCc1cc(C)c(C(=O)N2CCCC2CC(=O)c2cnn(C)c2)o1 (centres undefined)
- pIC50 [1]: < 4

SMILES: Cc1ccc(NC(=O)c2cc(S(=O)(=O)N3CCCCC3)c[nH]2)cc1F
- pIC50 [1]: < 4

SMILES: Cc1cc(C)n(CCCn2cncc2-c2ccc3c(c2)CC(C)N3C)n1.Cl (centres undefined)
- IC50 (Histidine--tRNA ligase [2]): 23.7 µM and 22.2 µM
- IC50 [3]: > 30.2 µM
- pIC50 (Trypanosoma brucei): 4.689 and 4.712
- IC50 (Trypanosoma brucei): 28.9 µM
- pIC50 [4]: 4.037
- IC50 [4]: 76.7 µM
- IC50 (ClpP1P2): > 100 µM
- pIC50 (Plasmodium falciparum): 5.88
- IC50 (Plasmodium falciparum): 1.59 µM

SMILES: Cl.NC1CCc2nc(-c3cccnc3)nc(Nc3ccc(F)cc3)c2C1 (centres undefined)
- pIC50 (Leishmania donovani): 5.001
- IC50 (Leishmania donovani): 8.3 µM
- IC50 [5]: 48.6 µM
- pIC50 (Trypanosoma brucei): 5.072 and 4.886
- IC50 (Trypanosoma brucei): 7.84 µM
- pIC50 [4]: 4.893
- IC50 [4]: 6.43 µM
- pIC50 (Plasmodium falciparum): 6.698
- IC50 (Plasmodium falciparum): 0.204 µM
- IC50 [6]: 22.2 µM

SMILES: COc1ccc2[nH]cc(-c3ccnc(NC4CCCC4)n3)c2c1
- pIC50 (Leishmania donovani): 4.561
- IC50 (Leishmania donovani): 21.8 µM
- pIC50 (Trypanosoma brucei): 5.019 and 4.85
- IC50 (Trypanosoma brucei): 14.6 µM
- IC50 [7]: 2.65 µM

SMILES: CCCc1cc(=O)[nH]c(-n2nc(C3CC3)cc2N)n1
- pIC50 (Leishmania donovani): 4.51
- IC50 (Leishmania donovani): 39.6 µM
- IC50 [5]: 23.8 µM
- pIC50 (Trypanosoma brucei): 5.268 and 5.368
- IC50 (Trypanosoma brucei): 5.23 µM
- IC50 [4]: 6.14 µM
- IC50 [6]: 16.1 µM
- pIC50 [7]: 5.649
- IC50 [7]: 1.95 µM

SMILES: CCN(Cc1c(F)cccc1Cl)c1cc(C2CCNCC2)nc(C)n1
- pIC50 (Leishmania donovani): 5.445
- IC50 (Leishmania donovani): 3.56 µM
- IC50 [5]: 24.4 µM
- pIC50 (Trypanosoma brucei): 5.239 and 5.238
- IC50 (Trypanosoma brucei): 4.96 µM
- pIC50 (Plasmodium falciparum): 6.254
- IC50 (Plasmodium falciparum): 0.495 µM
- IC50 [6]: 37.4 µM
- IC50 [7]: 4.56 µM

SMILES: Cl.NC1CCc2nc(-c3ccncc3)nc(Nc3cccc(F)c3)c2C1 (centres undefined)
- IC50 (Histidine--tRNA ligase [2]): 46.3 µM and 51.2 µM
- pIC50 (Leishmania donovani): 5.181
- IC50 (Leishmania donovani): 5.99 µM
- pIC50 (Trypanosoma brucei): 5.636 and 5.623
- IC50 (Trypanosoma brucei): 2.41 µM
- pIC50 [4]: < 4
- IC50 [4]: 50.4 µM
- IC50 [7]: 3.66 µM

SMILES: COc1c(C)cnc(CN(C)C2CCCCC2)c1C
- pIC50 (Leishmania donovani): 4.733
- IC50 (Leishmania donovani): 13.3 µM
- pIC50 (Trypanosoma brucei): 5.179 and 5.161
- IC50 (Trypanosoma brucei): 6.48 µM
- pIC50 (Wolbachia pipientis): 5.441
- IC50 (Wolbachia pipientis; Wolbachia pipientis): 6.39 µM
- pIC50 [7]: 5.219
- IC50 [7]: 4.88 µM

SMILES: CCn1ncc(-c2cc(C(F)(F)F)nc(N3CCC(N)CC3)n2)c1C
- IC50 (Leishmania donovani): 11.9 µM
- IC50 [5]: > 50.1 µM
- pIC50 (Trypanosoma brucei): 5.225 and 5.224
- IC50 (Trypanosoma brucei): 5.74 µM
- IC50 (Histidine--tRNA ligase [8]): > 100 µM
- IC50 [6]: > 50.1 µM
- pIC50 [7]: 5.222 and 5.563

SMILES: CN(C)S(=O)(=O)c1ccc(-c2nc(C#N)c(NC(C)(C)C)o2)o1.Cl
- IC50 (Leishmania donovani): > 50.1 µM
- pIC50 (Trypanosoma brucei): 4.737 and 4.726
- IC50 (Trypanosoma brucei): 18.4 µM
- IC50 [4]: 11.3 µM
- IC50 (ClpP1P2): > 100 µM
- IC50 [7]: 7.65 µM

SMILES: CC(C)c1cc(=O)[nH]c(-n2nc(C3CC3)cc2N)n1
- pIC50 (Leishmania donovani): 4.627
- IC50 (Leishmania donovani): 40.3 µM
- IC50 [5]: 11.5 µM
- pIC50 (Trypanosoma brucei): 5.692 and 5.673
- IC50 (Trypanosoma brucei): 2.09 µM
- IC50 [4]: 4.63 µM
- IC50 [6]: 12.5 µM
- pIC50 [7]: 6.102 and 5.757

— ChEMBL document CHEMBL3988442, “University of Dundee, Small-Polar-MMV Screening Library” (2021)
